For one test, the system named is SKOV-3. Briefly: Cell cytotoxicity assay (MTS), SKOV-3. The test is classed as cell-based. The following applies: Homo sapiens, SK-OV-3. Here is the method:
(§1) Cells were seeded into the wells of 96-well plates (2000 cells/well). After an overnight culture, the cells were treated with different concentrations of a compound for 72 h. The CellTiter 96 AQueous one-solution cell proliferation assay (MTS) reagent was used to determine cytotoxicity. After treatment with a compound, 20 μL of the MTS reagent was added to each well and the plates were incubated at 37° C. for 1-4 h. Next, the absorbance at 490 nm of the culture medium in each well was determined using a VersaMax microplate reader (Molecular Devices).

The test system of another test is 82T. Briefly: Cell cytotoxicity assay (MTS), 82T. The test is classed as cell-based. The conditions noted are these: Homo sapiens, 72 h. The method, then: as §1
The next test relates to HDQP1. Briefly: Cell cytotoxicity assay, HDQP1. It is filed as cell-based. The following applies: Homo sapiens, HDQ-P1; TNBC cell line HDQP1. The method, then:
as §1

In a further test the test system is A549. Briefly: Cell cytotoxicity assay (MTS), A549. The test is classed as cell-based. The conditions noted are these: Homo sapiens, A549, 72 h. Here is the method:
as §1

The target of test [1] is colchicine site of tubulin (Sus scrofa, UniProt P02554). Kind of test: Colchicine competition assay. The conditions noted are these: 37° C. for 1 h. The test is classed as binding. Here is the method: Tubulin ([…]) and colchicine ([…]) were incubated with the various concentrations of AS1712, nocodazole, or vincristine in 80 mM PIPES, 2 mM MgCl2, 0.5 mM EGTA, pH 6.9 at 37° C. for 1 h. Fluorescence intensities (excitation and emission wavelengths at 365 and 435 nm, respectively) were recorded using an Infinite M200 plate reader (Tecan). Fluorescence values were normalized to the DMSO control.

For a further test, the system named is KBvin. Kind of test: Cell cytotoxicity assay (MTS), KBvin. It is filed as cell-based, human. The method, then: as §1
Another test relates to KB. Briefly: Cell cytotoxicity assay (MTS), KB. It is filed as cell-based. The following applies: Homo sapiens. The method, then: as §1
The test system of a further test is Colon205. Briefly: Cell cytotoxicity assay (MTS), Colon205. The test is classed as cell-based. The conditions noted are these: Homo sapiens. Here is the method: as §1
Another test concerns Du-145. Briefly: Cell cytotoxicity assay (MTS), Du-145. It is filed as cell-based. The conditions noted are these: Homo sapiens. The method, then: as §1
In another test the test system is MDA-MB-231. Briefly: Cell cytotoxicity assay (MTS), MDA-MB-231. It is filed as cell-based. The conditions noted are these: Homo sapiens, MDA-MB-231, 72 h. The method, then: as §1
Another test has as its system CCRF-CEM. Kind of test: Cell cytotoxicity assay (MTS), CCRF-CEM. The test is classed as cell-based. The conditions noted are these: Homo sapiens. Here is the method:
as §1

A further test has as its target T1, Purified porcine tubulin (Sus scrofa, UniProt P02554).
T1 construct: purchased Cytoskeleton
Briefly: In vitro tubulin polymerization assay. It is filed as biochemical. The following applies: 5 μM, A340 every min for 1 h at 37° C. Here is the method: Reagents from a Tubulin Polymerization Assay kit (Cytoskeleton) were used according to the manufacturer's instructions. Purified porcine tubulin (4 mg/mL; >99% purity) in G-PEM buffer (80 mM PIPES, 2 mM MgCl2, 0.5 mM EGTA, 1 mM GTP, 15% glycerol, pH 6.9) was mixed with each test compound in the wells of a 96-well plate. Then, the A340 value was recorded each minute for 1 h at 37° C. with the VersaMax microplate reader.

Test [2] has as its system normal bronchial epithelial (NBE) cells. Kind of test: Cell cytotoxicity assay (MTS), normal bronchial epithelial cells. It is filed as cell-based. The conditions noted are these: Homo sapiens, normal cell line NBE (printed NEB in Table 2). The method, then:
as §1

For another test, the system named is HFB cells. Kind of test: Pro-apoptotic protein immunoblotting, HFB. It is filed as cell-based, human. The following applies: 24 to 72 h, normal HFB cells. The method, then: The cells were harvested and lysed in RIPA buffer (20 mM Tris-HCl, 150 mM NaCl, 1 mM Na2EDTA, 1% sodium deoxycholate, 1% IGEPAL CA-630, 0.1% SDS, pH 7.5) with protease inhibitors (Roche). Protein concentration was measured by the BCA assay. For immunoprecipitation, protein extracts were incubated with mag-beads-AS1712 or mag-beads-control at 4° C. overnight and then washed five times with PBS before immunoblotting. For immunoblotting, equivalent amounts of denatured proteins were separated through SDS-PAGE gels and then transferred to PVDF membranes (Millipore), which were each blocked with 5% nonfat milk in PBS and 0.1% Tween-20 (Sigma Aldrich) for 1 h. Then each membrane was incubated with a primary antibody overnight at 4° C., followed by incubation with a horseradish peroxidase conjugated secondary antibody for 1 h at room temperature. The signal was visualized by enhanced chemiluminescence detection, and images were acquired using a BioSpectrum Imaging System (UVP).

The subject of a further test is SW620. Kind of test: Cell cytotoxicity assay (MTS), SW620. It is filed as cell-based. The conditions noted are these: Homo sapiens, SW-620. The method, then: as §1
The next test relates to SAS. Kind of test: Cell cytotoxicity assay (MTS), SAS. It is filed as cell-based. The conditions noted are these: Homo sapiens. Here is the method:
as §1

In test [3] the test system is A549, CL1-0, PC9, and H1975. Kind of test: MTS assay, non-small cell lung cancer cell lines. The test is classed as cell-based. The conditions noted are these: Homo sapiens; A549, CL1-0, PC9, H1975; 72 h MTS; read-out: IC50 values for the affected cell lines. Here is the method: as §1
Another test concerns Hs578t. Briefly: Cell cytotoxicity assay (MTS), Hs578t. The conditions noted are these: Homo sapiens, Hs-578T, 72 h. It is filed as cell-based. Here is the method:
as §1

For the next test, the system named is CL1-0. Briefly: Cell cytotoxicity assay (MTS), CL1-0. The test is classed as cell-based. The following applies: Homo sapiens, CL1-0, 72 h. The method, then:
as §1

Test [4] concerns the target T2, purified centrosomes and tubulin (Sus scrofa, UniProt P02554).
T2 construct: purchased Cytoskeleton
Briefly: In vitro microtubule nucleation assay. The test is classed as biochemical, porcine. The method, then: Purified centrosomes were incubated with or without AS1712 and with porcine tubulin (Cytoskeleton) in 80 mM PIPES, 1 mM MgCl2, 1 mM EGTA, and 1 mM GTP, pH 6.8 for 8 min at 37° C. Microtubule asters were fixed in 1% glutaraldehyde, sedimented onto acid-treated coverslips, and finally subjected to immunofluorescence with anti-α-tubulin. The fiber lengths of the microtubule asters were measured using MetaMorph image analysis software (n=20/group).

In another test the test system is CL1-0 and H1975 cells. Kind of test: Cell cycle analysis (flow cytometry). The conditions noted are these: 24 h, propidium iodide. It is filed as cell-based, human. Here is the method:
After treatment, cells were trypsinized and fixed in ice-cold 70% ethanol overnight. Fixed cells were washed with PBS and stained with 0.5 mL of a propidium iodide (10 μg/mL)/RNase (20 μg/mL) solution for 30 minutes. The cellular DNA content was analyzed with a FACSCanto flow cytometer (Becton Dickinson).
(In flow cytometry, cells or beads pass a laser one at a time.)

A further test has as its system HDQP1/TAX. Briefly: Cell cytotoxicity assay, HDQP1/TAX. It is filed as cell-based, human. The method, then: as §1

A value given as a limit tells only on which side of the number the result lay.

As usually defined, the IC50 is the point on the concentration scale where inhibition reaches its midpoint. On to `CCOC(=O)c1ccc2[nH]c(-c3ccccc3)cc(=O)c2c1` [AS1712, Ethyl 4-oxo-2-phenyl-1,4-dihydroquinoline-6-carboxylate], for which the concentration for half-maximal inhibition (IC50) in the test on SKOV-3 was found to be 50 ± 0.32 nM; in the test on 82T it was 35 ± 0.67 nM; in the test on HDQP1 it was 68 ± 5.38 nM; in the test with A549, 20 ± 0.98 nM; in the test on KBvin (Homo sapiens, KBvin, P-gp overexpressing, vincristine-selected KB subline), 37 ± 0.77 nM; in the test on KB, 37 ± 0.27 nM. In addition, the IC50 with Colon205 is 57 ± 5.17 nM; in the test on Du-145, 47 ± 1.28 nM; in the test with MDA-MB-231 it was 55 ± 6.83 nM; in the test with CCRF-CEM it was 45 ± 0.45 nM; in [2], above 10000 nM; in the test on SW620, 35 ± 1.18 nM. The half-maximal inhibitory concentration (IC50) was 78 ± 10.4 nM in the test on SAS; 16 to 33 nM in [3]; 41 ± 2.87 nM in the test on Hs578t; 16 ± 2.48 nM with CL1-0; 63 ± 16.3 nM with HDQP1/TAX (Homo sapiens, HDQ-P1, Paclitaxel-resistant subline). In [1], the colchicine fluorescence entry is on record as “decreased the colchicine fluorescence in a dose-dependent manner”. The results for the “RF, resistance factor (IC50 in resistant cell line/IC50 in parent cell line)” value in the test on KBvin (KBvin vs KB) and in the test with HDQP1/TAX (HDQP1/TAX vs HDQP1) were 1 and 0.92, respectively. Moreover, at Purified porcine tubulin, the tubulin polymerization result is recorded as “directly inhibit tubulin polymerization”. In addition, the “PARP and caspase-3” value in the test on HFB cells is reported as “not affected”. In test [4], the “formation of microtubule asters from the centrosome” value is “substantially inhibited”. Moreover, the “sub-G1 and G2/M-phase population” value with CL1-0 and H1975 cells is reported as “increased”.

Source of the values: patent publication US12109207B2, “Methods of using 4(1H)-quinolone derivatives” (Academia Sinica, priority 2019, dated 2024).
